Each block holds one compound with its values, some of them ahead of it.
Key:
Format in all cases: cell-based
[1] = biological target: T1, MycN protein (Homo sapiens, UniProt P04198); test: Degradation of MycN protein, Western blot, SKNBE2 cells (Example 160)
T1 construct: either 2×10^6 of L-363 (human leukemia cell line) or SKNBE2 (neuroblastoma cell line) cells; endogenous in cells; host or cells: SKNBE2 / SK-N-BE(2) neuroblastoma cells
T1 sequence (P04198 1-464): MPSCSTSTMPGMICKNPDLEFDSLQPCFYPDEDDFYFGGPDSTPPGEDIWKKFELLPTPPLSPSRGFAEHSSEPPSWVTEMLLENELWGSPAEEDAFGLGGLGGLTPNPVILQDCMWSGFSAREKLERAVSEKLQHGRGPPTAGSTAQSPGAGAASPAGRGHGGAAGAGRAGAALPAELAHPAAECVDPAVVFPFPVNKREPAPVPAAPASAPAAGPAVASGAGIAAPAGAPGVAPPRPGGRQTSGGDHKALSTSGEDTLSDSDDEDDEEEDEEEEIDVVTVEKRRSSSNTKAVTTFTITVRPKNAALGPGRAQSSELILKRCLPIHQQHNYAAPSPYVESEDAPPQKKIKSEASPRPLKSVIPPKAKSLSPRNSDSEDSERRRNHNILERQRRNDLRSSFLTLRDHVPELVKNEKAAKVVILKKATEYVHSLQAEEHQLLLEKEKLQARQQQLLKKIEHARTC
Protocol: In a T150 flask was plated either 2×10^6 of L-363 (human leukemia cell line) or SKNBE2 (neuroblastoma cell line) cells in a total of 30 mL containing Roswell Park Memorial Institute (RPMI) 1640 Medium (Thermo Fisher, Cat. #11875-085), 10% Fetal Bovine Serum (FBS, Thermo Fisher: Cat. #10437-028), 1% Penicillin/streptomycin (Thermo Fisher: Cat. #10378016), and 1% Amophotericin B (Thermo Fisher, Cat. #15290026). The cells were split every 72 hours by reseeding the L-363 or SKNBE2 cells, and the passage number was noted. It is noteworthy that cell cultures that were above 40 passages were not used, and most experiments were done with cells of less than 30 passages.
In a 6-well cell culture plate, a total of 3 mL of either 1×10^6 cells/mL of L-363 or SKNBE2 cells were seeded, resulting in a total of 3×10^6 cells per well. To each well containing 3 mL of either L-363 or SKNBE2 cell line was added 6 uL of MycN modulating compound (1 mM) and the resulting plate was shaken from left to right, and not swirled. After 6 hours, the cells were placed in a 15 mL falcon tube and spun at 500 Gs at 4° C. in a swinging bucket centrifuge. The medium was then carefully removed without disturbing the pellet. The pellet was then washed with 3 mLs of chilled phosphate buffered saline (PBS) and subjected to the spin cycle. PBS was then removed and the pellet was lysed in 200 uL of radioimmunoprecipitation (RIPA) lysis buffer (Thermo Fisher: Cat. #899000) that is supplemented with protease and phosphatase inhibitors (Thermo Fisher: Cat. #A32959). The cell lysate was then subjected to spinning in a centrifuge for 10 minutes at 13000 G at 4° C. The supernatant was then carefully transferred to a fresh eppendorf tube without disturbing the pellet (˜180 uL). The protein concentration of the cell lysate was then determined by using a bicinchoninic acid (BCA assay) according to manufacturer's protocol (Thermo Fisher: Cat. #23227).
Cell lysate, approximately 25 ug-30 ug, was loaded per well in a 4-20% polyacrylamide gel (Biorad. Cat. #5671094). After running the dye front off of the gel, the gel was transferred to a nitrocellulose membrane (Biorad: Cat. #1704159) using the transblot turbo system (Biorad: Cat. #1704150) according to manufacturer's protocol. After transferring for 30 minutes, the membrane was blocked with 5% BSA for 1 hour at room temperature. The BSA was then washed off and the primary antibody of choice (1:500) was added, and the membrane was incubated with the primary antibody at 4° C. for overnight. The next morning, the primary antibody was removed and the membrane was washed with 1×-TBST for 10 minutes and repeated three more times. Following the last wash, a secondary antibody (Molecular Devices. Cat. #R8209 or R8208) was added at 1:5000 dilution and incubated for 1 hour at room temperature. Following the incubation with the secondary antibody, the membrane was washed with 1×-TBST for 10 minutes and repeated three more times. Following the last wash, the membrane was washed with de-ionized water twice and dried for at least two hours. Once the membrane is completely dry, the Molecular Devices Spectra Max western system was used to observe the bands. The western image was saved and the band density was measured with ImageJ software.

[2] = biological target: T2, MycN protein (n-myc) (Homo sapiens, UniProt P04198); test: Degradation of MycN protein, 24 h treatment, JESS Western, SK-N-BE(2) cells (Example 161); settings: SKNBE2 cells
T2 construct: either 2×10^6 of L-363 (human leukemia cell line) or SKNBE2 (neuroblastoma cell line) cells; endogenous in cells; host or cells: SKNBE2 / SK-N-BE(2) neuroblastoma cells
T2 sequence (P04198 1-464): T1 sequence (P04198 1-464)
Protocol: (§1) For L363 cells (suspension), 1E6 cells were plated into each well of a 6 well plate. For SK-N-BE(2) cells (adherent), 5E5 cells were plated into each well of a 6 well dish. […] All compounds were diluted to 10 mM in DMSO. Cells were treated with the compound for 24 hrs, then for both cell types, media containing cells were removed from wells into a 15 ml centrifuge tube, and remaining adherent SK-N-BE(2) cells were also scraped from the wells into the appropriate tubes. Tubes were centrifuged, cells were washed with PBS then re-centrifuged to pellet cells. A RIPA buffer cocktail was added to the cells on ice for 5 mins. Cell lysates were clarified by centrifugation and stored at −80 degrees until required. BCA assay was performed on each lysate to determine the protein concentration.
(§2) For validation studies of antibodies, lysates and antibodies were used at a number of concentrations (Lysates: 2, 1, 0.2 mg/ml; Antibodies: 1 in 50, 1 in 200 dilution). Once an appropriate lysate concentration and antibody concentration was determined, samples were screened in the JESS technology (Protein Simple, San Jose, CA—https://www.proteinsimple.com/jess.html).
(§3) Target protein antibodies (n-myc and c-myc) were detected in the chemi-luminescence channel and loading controls (tubulin and GAPDH) were detected using a Near Infra Red (NIR) labeled secondary antibody.
(§4) For SK-N-EB2 adherent cells, 5E5 cells in 1.9 mls media were plated into 6 well dishes and incubated for 24 hrs. […] Cells were scrapped off the plate, centrifuged, washed with PBS, centrifuged, then a RIPA buffer cocktail added to the cells (100 ul), centrifuged and stored at −80 for later analysis. For L363 suspension cells, 1E6 cells were plated into […] (950 ul media) and incubated for 24 hrs. […] Cells were aspirated into tubes, centrifuged, washed with PBS, centrifuged, then a RIPA buffer cocktail added to the cells (100 ul), centrifuged and stored at −80 for later analysis.
(§5) For Western blot, a BCA (total protein) assay was run on all samples, these were then run in batches of 5 compounds plus control (DMSO) on each Western blot run—n-myc and c-myc were run in separate experiments in the chemiluminescence channel. Both tubulin and GAPDH were run as loading controls in all lanes in the near infra red channel.

[3] = biological target: T3, MycC protein (c-myc) (Homo sapiens, UniProt P01106); test: Degradation of MycC protein, 24 h treatment, JESS Western, L363 cells (Example 161); settings: L-363 cells
T3 construct: either 2×10^6 of L-363 (human leukemia cell line) cells; endogenous in cells; host or cells: L-363 / L363 human leukemia cells
Protocol: as §1, §2, §3, §4, §5

T3 sequence (P01106 whole entry): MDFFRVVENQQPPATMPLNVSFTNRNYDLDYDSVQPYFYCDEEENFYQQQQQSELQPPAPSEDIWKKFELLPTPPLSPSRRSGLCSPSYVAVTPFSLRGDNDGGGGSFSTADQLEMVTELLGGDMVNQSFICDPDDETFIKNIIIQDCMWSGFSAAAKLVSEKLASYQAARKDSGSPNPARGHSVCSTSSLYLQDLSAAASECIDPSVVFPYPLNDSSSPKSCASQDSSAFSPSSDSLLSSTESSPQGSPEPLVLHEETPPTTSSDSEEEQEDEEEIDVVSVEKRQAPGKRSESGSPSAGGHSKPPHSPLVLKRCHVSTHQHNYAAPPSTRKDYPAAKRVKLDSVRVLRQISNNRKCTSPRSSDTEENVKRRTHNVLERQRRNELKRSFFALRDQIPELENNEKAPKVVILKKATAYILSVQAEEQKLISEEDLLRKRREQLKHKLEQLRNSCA

Compound: COCCOCCN1CC2(CC(N(C)c3nccc(Nc4cc(C5CC5)[nH]n4)n3)C2)C1 [Compound 22, N4-(5-Cyclopropyl-1H-pyrazol-3-yl)-N2-(2-(2-(2-methoxyethoxy)ethyl)-2-azaspiro[3.3]heptan-6-yl)-N2-methylpyrimidine-2,4-diamine]
inhibition at 0.5 µM ([2]; 0.5 μM): < 20% | inhibition at 1 µM [2]: 20 to 49% | inhibition at 3 µM [2]: 20 to 49% | inhibition at 6 µM [2]: 20 to 49%

Compound: CN(c1nccc(Nc2cc(C3CC3)[nH]n2)n1)C1CC2(C1)CN(CC(=O)Nc1ccc(S(C)(=O)=O)cc1)C2 [Compound 24, 2-(6-((4-((5-Cyclopropyl-1H-pyrazol-3-yl)amino)pyrimidin-2-yl)(methyl)amino)-2-azaspiro[3.3]heptan-2-yl)-N-(4-(methylsulfonyl)phenyl)acetamide]
inhibition at 6 µM [3]: 80 to 100%

Compound: CN1CCN(C(=O)CN2CC3(CC(N(C)c4nccc(Nc5cc(C6CC6)[nH]n5)n4)C3)C2)CC1 [Compound 30, 2-(6-((4-((5-Cyclopropyl-1H-pyrazol-3-yl)amino)pyrimidin-2-yl)(methyl)amino)-2-azaspiro[3.3]heptan-2-yl)-1-(4-methylpiperazin-1-yl)ethan-1-one]
inhibition at 0.5 µM ([3]; 0.5 μM): 20 to 49% | inhibition at 1 µM ([3]; 1 μM): 20 to 49% | inhibition at 3 µM ([3]; 3 μM): < 20% | inhibition at 6 µM [3]: < 20%

Compound: CN(c1nccc(Nc2cc(C3CC3)[nH]n2)n1)C1CC2(C1)CN(S(=O)(=O)c1cn3c(n1)CCCC3)C2 [Compound 36, N4-(5-Cyclopropyl-1H-pyrazol-3-yl)-N2-methyl-N2-(2-((5,6,7,8-tetrahydroimidazo[1,2-a]pyridin-2-yl)sulfonyl)-2-azaspiro[3.3]heptan-6-yl)pyrimidine-2,4-diamine]
inhibition at 1 µM [2]: < 20% | inhibition at 3 µM [2]: < 20% | inhibition at 6 µM [2]: < 20%

Compound: CN(c1nccc(Nc2cc(C3CCCC3)[nH]n2)n1)C1CCC(CC(=O)NC2Cc3ccc(C#N)cc3C2)CC1 (stereo not drawn) [Compound 102, N-(5-cyano-2,3-dihydro-1H-inden-2-yl)-2-(4-((4-((5-cyclopentyl-1H-pyrazol-3-yl)amino)pyrimidin-2-yl)(methyl)amino)cyclohexyl)acetamide]
inhibition at 2 µM ([1]; 6 h): 80 to 100%

Compound: CN(c1nccc(Nc2cc(C3CCCC3)[nH]n2)n1)[C@H]1CC[C@H](NC(=O)Cc2cccc(C(F)(F)F)c2)CC1 [Compound 103, N-((1R,4R)-4-((4-((5-cyclopentyl-1H-pyrazol-3-yl)amino)pyrimidin-2-yl)(methyl)amino)cyclohexyl)-2-(3-(trifluoromethyl)phenyl)acetamide]
inhibition at 2 µM ([1]; SKNBE2, 6 h): 50 to 79%

Compound: CN(c1nccc(Nc2cc(C3CC3)[nH]n2)n1)[C@H]1CC[C@H](NC(=O)Cc2cccc(C(F)(F)F)c2)CC1 [Compound 104, N-((1R,4R)-4-((4-((5-cyclopropyl-1H-pyrazol-3-yl)amino)pyrimidin-2-yl)(methyl)amino)cyclohexyl)-2-(3-(trifluoromethyl)phenyl)acetamide]
inhibition at 2 µM ([1]; SKNBE2, 6 h): 20 to 49%

Continued, values first:

inhibition at 2 µM ([1]; SKNBE2, 6 h): 50 to 79%
Compound: CN(c1nccc(Nc2cc(C3CC3)[nH]n2)n1)[C@H]1CC[C@H](NC(=O)N2Cc3ccccc3C2)CC1 [Compound 11, N-((1R,4R)-4-((4-((5-cyclopropyl-1H-pyrazol-3-yl)amino)pyrimidin-2-yl)(methyl)amino)cyclohexyl)isoindoline-2-carboxamide]

inhibition at 2 µM ([1]; SKNBE2, 6 h): 50 to 79%
Compound: CN(c1nccc(Nc2cc(C3CC3)[nH]n2)n1)[C@H]1CC[C@H](NC(=O)C2Cc3ccccc3C2)CC1 [Compound 101, N-((1R,4R)-4-((4-((5-cyclopropyl-1H-pyrazol-3-yl)amino)pyrimidin-2-yl)(methyl)amino)cyclohexyl)-2,3-dihydro-1H-indene-2-carboxamide]

inhibition at 2 µM ([1]; SKNBE2, 6 h): 50 to 79%
Compound: CN(c1nccc(Nc2cc(C3CCCC3)[nH]n2)n1)[C@H]1CC[C@H](NC(=O)C2Cc3ccccc3C2)CC1 [Compound 105, N-((1R,4R)-4-((4-((5-cyclopentyl-1H-pyrazol-3-yl)amino)pyrimidin-2-yl)(methyl)amino)cyclohexyl)-2,3-dihydro-1H-indene-2-carboxamide]

inhibition at 2 µM ([1]; SKNBE2, 6 h): 20 to 49%
Compound: CN(c1nccc(Nc2cc(C3CCCC3)[nH]n2)n1)[C@H]1CC[C@H](NC(=O)CC2Cc3ccccc3C2)CC1 [Compound 106, N-((1R,4R)-4-((4-((5-cyclopentyl-1H-pyrazol-3-yl)amino)pyrimidin-2-yl)(methyl)amino)cyclohexyl)-2-(2,3-dihydro-1H-inden-2-yl)acetamide]

inhibition at 2 µM ([1]; SKNBE2, 6 h): 50 to 79%
Compound: CN(c1nccc(Nc2cc(C3CC3)[nH]n2)n1)[C@H]1CC[C@H](NC(=O)c2cccc(C(F)(F)F)c2)CC1 [Compound 107, N-((1R,4R)-4-((4-((5-cyclopropyl-1H-pyrazol-3-yl)amino)pyrimidin-2-yl)(methyl)amino)cyclohexyl)-3-(trifluoromethyl)benzamide]

inhibition at 2 µM ([1]; SKNBE2, 6 h): 50 to 79%
Compound: CN(c1nccc(Nc2cc(C3CC3)[nH]n2)n1)[C@H]1CC[C@H](NC(=O)Cc2cccc(C#N)c2)CC1 [Compound 114, 2-(3-cyanophenyl)-N-((1R,4R)-4-((4-((5-cyclopropyl-1H-pyrazol-3-yl)amino)pyrimidin-2-yl)(methyl)amino)cyclohexyl)acetamide]
